Marks after values point to notes of the source that are not given here.
Tests used:
[1] = test system: ovariectomized rats; test: 5-diol alone or with Flutamide and/or EM-800 for 12 months in ovariectomized rats (bone mass, serum markers)
[2] = test system: ovariectomized female rats; test: Prevention of bone loss, body fat, serum cholesterol and ALP, 3-month treatment of OVX rats (Example 5A, experiment 1); format: in vivo, Sprague-Dawley rats; settings: 3 months; for Serum ALP: OVX rats
Protocol: (§1) Ten to twelve week-old female Sprague-Dawley rats (Crl:CD(SD)Br) (Charles River Laboratory, St-Constant, Canada) weighing approximately 220-270 g at start of treatment were used. The animals were acclimatized to the environmental conditions (temperature: 22±3° C.; humidity: 50±20%; 12-h light-12-h dark cycles, lights on at 07:15 h) for at least 1 week before starting the experiments. The animals were housed individually and were allowed free access to tap water and a pelleted certified rodent feed (Lab Diet 5002, Ralston Purina, St-Louis, Mo.). Experiments were conducted in an animal facility approved by the Canadian Council on Animal Care (CCAC) and the Association for Assessment and Accreditation of Laboratory Animal Care (AAALAC) in accordance with the CCAC Guide for Care and Use of Experimental Animals.
On day 1 of the study, the animals of the appropriate groups were bilaterally ovariectomized (OVX) under isoflurane anesthesia. […] Treatments were initiated on day 2 of the study and were performed once daily during 3 months.
After 3 months (experiment 1) or 26 weeks (experiment 2) of treatment, individual rats under Isoflurane anesthesia had their whole body skeleton and lumbar spine scanned using dual energy x-ray absorptiometry (DEXA; QDR 4500A, Hologic, Waltham, Mass.) and a Regional High Resolution Scan software. The bone mineral density (BMD) of the lumbar spine (vertebrae L2 to L4) and the total body composition (fat percentage) were determined.
After 3 months (experiment 1) or 26 weeks (experiment 2) of treatment, blood samples were collected at the jugular vein from overnight fasted animals (under Isoflurane anesthesia). Samples were processed for serum preparation and frozen at −80° C. until assay. Serum cholesterol levels and alkaline phospatase activity (ALP) were determined using the Boehringer Mannheim Diagnostic Hitachi 911 Analyzer (Boehringer Mannheim Diagnostic Laboratory Systems).

[3] = test system: OVX rats having established osteopenia; test: Treatment of OVX rats having established osteopenia, 26 weeks (Example 5B): BMD, total body fat; format: in vivo, Sprague-Dawley rats; settings: treatment started 10 weeks after OVX, 26 weeks daily
Protocol: as §1, with “Height” for “Ten”, “nine month-old” for “twelve week-old”, “Canada)” for “Canada) weighing approximately 220-270 g at start of treatment”, “used in this experiment.” for “used.”, “prior to” for “before starting”, “ovariectomy. Animals were bilaterally ovariectomized (OVX) under isoflurane anesthesia. Twenty animals were kept intact as control.” for “experiments.”
Treatments were initiated 10 weeks after the ovariectomy and were performed once daily during 26 weeks. Animals not receiving a test article were treated with the appropriate vehicle alone during the same period.
Prior to the OVX, prior to the first day treatment (10 weeks after OVX) and after 26 weeks of treatment, individual rats under Isoflurane anesthesia had their whole body skeleton, lumbar spine and right femur scanned using dual energy x-ray absorptiometry (DEXA; QDR 4500A, Hologic, Waltham, Mass.) and a Regional High Resolution Scan software. The bone mineral density (BMD) of the lumbar spine (vertebrae L2 to L4), femur and the total body composition (fat percentage) were determined.

[4] = test system: ovariectomized rats supplemented with 17β-estradiol; test: EM-652.HCl with oral 17β-estradiol for 2 weeks in OVX rats: uterus, endometrial epithelium, vagina, serum cholesterol (Example 10); format: in vivo, Sprague-Dawley rats
Protocol: Ten to twelve week-old female Sprague-Dawley rats (Crl:CD(SD)Br) (Charles River Laboratory, St-Constant, Canada) weighing 215-265 g at time of ovariectomy were used. The animals were housed individually in an environmentally-controlled room (temperature: 22±3° C.; humidity: 50±20%; 12-h light-12-h dark cycles, lights on at 07:15 h). The animals were allowed free access to tap water and a certified rodent feed (Lab Diet 5002 (pellet), Ralston Purina, St-Louis, Mo.). The experiment was conducted in an animal facility approved by the Canadian Council on Animal Care (CCAC) and the Association for Assessment and Accreditation of Laboratory Animal Care (AAALAC) in accordance with the CCAC Guide for Care and Use of Experimental Animals.
On the first day of the study, the animals of the appropriate groups were bilaterally ovariectomized (OVX) under isoflurane anesthesia. The tested compounds were then given once daily by oral gavage as a suspension in 0.4% methylcellulose (0.5 ml/rat) from day 1 to day 14 of the study. Animals of groups 1 and 2 received the vehicle alone during the same time period. On day 15 of the study, 4 animals per group were perfused with 10% buffered formalin and tissues were processed for histological examination. The other animals were killed by exsanguination at the abdominal aorta under isoflurane anesthesia. The uterus and vagina were removed, stripped of remaining fat and weighed. A specimen from each uterus was fixed in 10% buffered formalin for determination of the height of endometrial epithelial cells using a computerized-assisted program (Software Image-Pro Plus).
Total cholesterol was measured on serum samples collected from overnight fasted animals using a Boehringer Mannheim Diagnostic Hitachi 911 Analyzer (Boehringer Mannheim Diagnostic Laboratory Systems).

[5] = test system: ZR-75-1 breast tumors; test: Growth and response category of human ZR-75-1 breast tumors in OVX nude mice, 7 antiestrogens, 161 days (Example 8); format: in vivo; settings: 161 days; for Change of ZR-75-1 tumor size compared to the OVX control group: 200 μg daily alone
Protocol: The mice (5 per cage) were housed in vinyl cages equipped with air filter lids, which were kept in laminar airflow hoods and maintained under pathogen-limiting conditions. The photoperiod was 12 hours of light and 12 hours of darkness (lights on at 07:15). Cages, bedding and food (Agway Pro-Lab R-M-H Diet #4018) were autoclaved before use. Water was autoclaved and provided ad libitum. Bilateral ovariectomy was performed under isoflurane-induced anesthesia. […] Randomization and treatments were started one week later. […] The 17 groups included two control groups (OVX and OVX+Estrone), seven groups supplemented with an estrone implant and treated with an antiestrogen and eight other groups that received an antiestrogen alone. The estrone implants were then removed from the animals in the ovariectomized control group (OVX) and in groups that were to receive the antiestrogen alone. […] Tamoxifen was purchased from […], Israel) while toremifene citrate was purchased from Orion (Espoo, Finland). […] Animals in both control groups received 0.2 ml of the vehicle alone. The antiestrogen suspensions at the appropriate concentration were prepared each month, stored at 4° C. and used under constant agitation. Powder stock were hermetically stored at 4° C. […] Tumor response was assessed at the end of the study or at death of each animal, if it occurred during the course of the experiment. In this case, only data of mice that survived for at least half of the study (84 days) were used in the tumor response analysis.

[6] = test system: endometrial epithelium; test: Thickness of uterine (endometrial) epithelial cells in the mice of Example 8; format: in vivo, nude mice; settings: for Endometrial epithelium thickness: OVX + antiestrogen 200 μg daily, no estrone, 161 days
Description: The 17 groups included two control groups (OVX and OVX+Estrone), seven groups supplemented with an estrone implant and treated with an antiestrogen and eight other groups that received an antiestrogen alone. The estrone implants were then removed from the animals in the ovariectomized control group (OVX) and in groups that were to receive the antiestrogen alone. […] Tamoxifen was purchased from […], Israel) while toremifene citrate was purchased from Orion (Espoo, Finland). […] Animals in both control groups received 0.2 ml of the vehicle alone. The antiestrogen suspensions at the appropriate concentration were prepared each month, stored at 4° C. and used under constant agitation. Powder stock were hermetically stored at 4° C. […] After 161 days of treatment, the remaining animals were anesthetized with isoflurane and killed by exsanguination. […] The uteri were prepared to evaluate endometrial thickness by image analysis performed with Image Pro-Plus (Media Cybernetics, Maryland, USA). […] Hematoxylin- and eosin-stained sections of mice uteri were analysed. […] Mean epithelial cell height was measured in all animals of each group.

[7] = test system: breast and endometrial tissues; test: Antiestrogens tested for SERM function and estrogenic activity in breast and endometrium; settings: for Estrogenic activity in breast and endometrial tissues: physiological or pharmacological concentrations
Description: As used herein, a selective estrogen receptor modulator (SERM) is a compound that either directly or through its active metabolite functions as an estrogen receptor antagonist (“antiestrogen”) in breast tissue, yet provides estrogenic or estrogen-like effect on bone tissue and on serum cholesterol levels (i.e. by reducing serum cholesterol). Non-steroidal compounds that function as estrogen receptor antagonists in vitro or in human or rat breast tissue (especially if the compound acts as an antiestrogen on human breast cancer cells) is likely to function as a SERM. Conversely, steroidal antiestrogens tend not to function as SERMs because they tend not to display any beneficial effect on serum cholesterol. […] These SERMs may be called “pure SERMs”. […] This second series of SERMs may be called “mixed SERMs”. The unwanted estrogenic activities of these “mixed SERMs”, may be inhibited by addition of pure “SERMs” as shown in FIGS. 6 and 7 in in vitro tests and in FIG. 9 in an in vivo test of breast cancer.

[8] = test system: uterus and vagina of ovariectomized mice; test: Uterine and vaginal weight in ovariectomized mice treated or not with estrone (9 days oral); format: in vivo, BALB/c mice
Protocol: (St-Constant, Quebec, Canada) and housed 5 per cage in a temperature (23±1° C.)—and light (12 h light/day, lights on at 7:15)—controlled environment. The mice were fed rodent chow and tap water ad libitum. […] Ten mice were kept intact as controls. […] Compounds were dissolved in ethanol (4% final concentration) and administered in 0.4% methylcellulose. Mice in the intact and OVX control groups received the vehicle alone (4% ETOH-0.4% methylcellulose) during the 9-day period. The animals were killed by exsanguination at the abdominal aorta on the 11th morning following ovariectomy.

[9] = 10 μg alone, absence of estrone, OVX mice

C[C@]12CC[C@H]3[C@@H](CC=C4C[C@@H](O)CC[C@@]43C)[C@@H]1CC[C@@H]2O [5-diol, androst-5-ene-3β,17β-diol]
Serum alkaline phosphatase activity ([1]; 5-diol): marked stimulation
Urinary ratio of calcium to creatinine ([1]; 5-diol): no statistically significant inhibitory effect
Reduction of serum cholesterol ([1]; highest dose of 5-diol): 23%

CC(C)C(=O)Nc1ccc([N+](=O)[O-])c(C(F)(F)F)c1 [FLU, Flutamide]
Reversal of 5-diol-stimulated serum alkaline phosphatase activity ([1]; simultaneous FLU, vs 12.5 mg 5-diol alone): 57%

C[C@]12CC[C@@H]3c4ccc(O)cc4CC[C@H]3[C@@H]1CC[C@@H]2O [E2, 17β-estradiol, reference compound]
Serum ALP [2]: 59 ± 4 IU/L
Femoral BMD [3]: completely prevented the further decrease
Lumbar spine BMD [3]: completely prevented the further decrease
Total body fat [3]: prevented the 17% increase
Endometrial epithelial height ([4]; OVX + E2 2 mg/kg): 41.9±1.2 μm
Endometrial epithelial height higher than in intact control animals ([4]; OVX + E2 2 mg/kg): 34.7%
Inhibition of serum cholesterol levels ([4]; OVX + E2 2 mg/kg): 53%
Vaginal weight ([4]; OVX + E2 2 mg/kg): 149.9 ± 9.0 mg
Uterine weight ([4]; OVX + E2 2 mg/kg oral daily, 2 weeks): 490 ± 26 mg

CC/C(=C(/c1ccc(OCCN(C)C)cc1)c1cccc(O)c1)c1ccccc1 [Droloxifene, (E)-3-[1-[4-[2-(Dimethylamino)ethoxy]phenyl]-2-phenyl-1-butenyl]phenol]
Progressing tumors ([5]; 50 μg daily + estrone): 100%
Change of ZR-75-1 tumor size compared to the OVX control group ([5]; absence of estrone): did not significantly change
Endometrial epithelium thickness [6]: 18.50 ± 0.07 μm
Function as SERM [7]: found to function as SERMs
Estrogenic activity in breast and endometrial tissues [7]: have some estrogenic activities

CC/C(=C(\c1ccc(I)cc1)c1ccc(OCCN2CCCC2)cc1)c1ccccc1 [Idoxifene, (E)-1-[2-[4-[1-(4-Iodophenyl)-2-phenyl-1-butenyl]phenoxy]ethyl]pyrrolidine]
Progressing tumors ([5]; 50 μg daily + estrone): 71%
Progressing tumors ([5]; 200 μg daily, absence of estrone): 33%
Inhibition of the stimulatory effect of estrone on epithelial height ([6]; 50 μg daily oral + estrone): 50%
Function as SERM [7]: found to function as SERMs
Estrogenic activity in breast and endometrial tissues [7]: have some estrogenic activities

Cl.O=C(c1ccc(OCCN2CCCCC2)cc1)c1c(-c2ccc(O)cc2)sc2cc(O)ccc12 [Raloxifene, [2-(4-hydroxyphenyl)-6-hydroxybenzo[b]thien-3-yl][4-[2-(1-piperidinyl)ethoxy]phenyl]-methanone hydrochloride]
Stimulation of uterine weight [8, 9]: 85%
Stimulation of vaginal weight [8, 9]: 56%
Inhibition of estrone-stimulated vaginal weight ([8]; 10 μg daily oral, 9 days, OVX mice + E1): 24%
Progressing tumors ([5]; 50 μg daily + estrone): 81%
Change of ZR-75-1 tumor size compared to the OVX control group ([5]; absence of estrone): did not significantly change
Endometrial epithelium thickness [6]: 22.33^a ± 0.05 μm
Function as SERM [7]: found to function as SERMs
Estrogenic activity in breast and endometrial tissues [7]: have some estrogenic activities

CC/C(=C(\c1ccccc1)c1ccc(/C=C/C(=O)O)cc1)c1ccccc1 [GW 5638]
Serum ALP [2]: 72 ± 6 IU/L
OVX-induced increase on serum cholesterol levels ([2]; alone or in combination with E2): completely prevented
Progressing tumors ([5]; 50 μg daily + estrone): 77%
Change of ZR-75-1 tumor size compared to the OVX control group ([5]; absence of estrone): did not significantly change
Endometrial epithelium thickness [6]: 22.22^a ± 0.05 μm
Function as SERM [7]: found to function as SERMs
Estrogenic activity in breast and endometrial tissues [7]: have some estrogenic activities
